Reference: US20100003217A1, “Compounds and Pharmaceutical Compositions for the Treatment of Viral Infections” (priority 2008, published 2010)
Where “and” joins values, the source holds several entries; their conditions need not be identical. Equal values may be shown once. Blank lines part the entries; values can stand above or below the compound they belong to.

Tested on: human primary hepatocytes
Experiment: Metabolic disposition of [^14C]-Compound 1 and [^14C]-2′-C-methyl guanosine in human primary hepatocytes (incubation medium, cellular extracts, nucleotide levels)
Assay type: in vitro ADME
Procedure: Primary hepatocytes: Freshly isolated cells from animal and human liver were obtained in suspension on ice. Cells were pelleted by centrifugation at 70-75×g (rat) or 95-90×g (monkey and human) and resuspended at 0.8 million cells per mL of platting medium (William's E supplemented with 5% FBS, 0.5% penicillin-streptomycin, 1% L-glutamine, 4 μg/mL insulin and 1 μM dexamethasone). Multi-well collagen I-coated plates (rat tail collagen type I; 12- or 6-well) were then seeded by addition of 1 mL (12-well; 0.8 million cells/well) or 2 mL (6-well; 1.6 million cells/well) of cell suspension. The plates were gently shaken to evenly distribute the cells and placed in an incubator at 37° C. for approximately 4 to 6 hours to allow cells to attach. Once cells were attached, the platting medium was removed and replaced with hepatocyte culture medium (William's E supplemented with penicillin-streptomycin, 1% L-glutamine, 1% insulin-transferrin-selenium and 0.1 μM dexamethasone). Cells were left overnight in an incubator at 37° C. to acclimatize to culture and the medium.
Hepatocyte incubations with radiolabeled Compound 1 and 2′-C-methyl guanosine, both labeled in the C-8 position of the guanine moiety, were conducted at a final volume of 2.0 mL hepatocyte culture medium/well ([…]). Culture medium from overnight incubation of cells was removed and replaced with fresh medium, pre-warmed to 37° C., containing 1 or 10 μM [^14C]-Compound 1 ([…]) or [^14C]-2′-C-methyl guanosine (127 DPM/μmol) from a stock solution in DMSO (final DMSO concentration was 0.1%) or 50% ethanol (final ethanol concentration was 0.2%). After 1, 4, 8 and 24 hours, 0.5-1.0 mL of incubation medium was removed and stored at −20° C. until analysis (described below). The remaining medium was discarded and cell monolayers were carefully washed two times with ice-cold PBS. Following the last wash, all PBS was carefully removed and 1.0 mL of extraction solution (ice-cold 70% methanol) added. Cells were scrapped off and suspended in the extraction solution, transferred to 2 mL polypropylene microfuge tubes and intracellular contents extracted overnight at −20° C.
Preliminary identification of putative metabolites was conducted by comparing the retention time of observed metabolites in incubation medium and cellular extracts with retention times obtained with chemically synthesized standards using the chromatography conditions described below. Further identification of 2′-C-methyl guanosine nucleotides (mono-, di- and triphosphate) was carried out by incubating cellular extract samples with alkaline phosphatase (10 units for 60 min at 37° C.) and comparing the HPLC retention times of the resulting nucleosides with that of authentic 2′-C-methyl guanosine.
Cellular extracts were prepared by centrifugation at 16,000 RCF using an Eppendorf microcentrifuge (Eppendorf, Model 5415D) for 10 min to remove cellular debris. An aliquot of 5-10 μL of the supernatant was added to 5 mL of EcoLite™ (MP, Irvine, Calif.) liquid scintillation cocktail and radioactivity measured by liquid scintillation counting (LSC) using a Beckman Coulter LS6500 multipurpose liquid scintillation counter (Beckman Instruments, Fullerton, Calif.). The remaining sample was then dried using a Labconco refrigerated centrivap concentrator (Labconco, Kansas City, Mo.). Dry extracts were reconstituted in 120 μL of HPLC-grade water and centrifuged at 16,000 RCF using an Eppendorf microcentrifuge for 10 min. Prior to HPLC analysis (described below), radioactivity of the concentrated extracts was measured by LSC using 5 μL aliquots. Extraction recovery was then determined by comparing total radioactivity in extracts before and after drying. The remaining extract was then analyzed by HPLC with online radioactivity detection using a Flow Scintillation Analyzer Radiomatic™ 515TR. Radioactivity in the separated components was quantified by integrating the peaks using Flo-One™ Software (Perkin Elmer Life Sciences). […]

[1] = human hepatocytes (Hu759, Hu775), 10 μM [^14C]-Compound 1, 1 h
[2] = human hepatocytes (Hu759, Hu775), 10 μM [^14C]-Compound 1, 8 h
[3] = human hepatocytes (Hu759, Hu775), 10 μM [^14C]-Compound 1, 24 h
[4] = human hepatocytes (Hu775), 1 μM [^14C]-Compound 1, 0 h
[5] = human hepatocytes (Hu775), 1 μM [^14C]-Compound 1, 1 h
[6] = human hepatocytes (Hu775), 1 μM [^14C]-Compound 1, 8 h
[7] = human hepatocytes (Hu775), 1 μM [^14C]-Compound 1, 24 h
[8] = human hepatocytes Hu775, 1 μM [^14C]-2′-C-methyl guanosine, 1 h
[9] = human hepatocytes Hu775, 1 μM [^14C]-2′-C-methyl guanosine, 8 h
[10] = human hepatocytes Hu775, 1 μM [^14C]-2′-C-methyl guanosine, 24 h

metabolites observed in cellular extracts (% of total radioactivity) [1]: 6.50% and 2.30% | metabolites observed in cellular extracts (% of total radioactivity) [2]: BLD | metabolites observed in cellular extracts (% of total radioactivity) [3]: BLD | metabolites observed in medium (% of total radioactivity) [4]: 2.22% | metabolites observed in cellular extracts (% of total radioactivity) [5]: 4.94% | metabolites observed in medium (% of total radioactivity) [5]: BLD | metabolites observed in cellular extracts (% of total radioactivity) [6]: BLD | metabolites observed in medium (% of total radioactivity) [6]: 2.27% | metabolites observed in cellular extracts (% of total radioactivity) [7]: BLD | metabolites observed in medium (% of total radioactivity) [7]: 1.7% and 1.72% | metabolites observed in medium (% of total radioactivity) (human hepatocytes (lots Hu759, Hu775), 10 μM [^14C]-Compound 1, 0 h): 2.7% and 1.1% | metabolites observed in medium (% of total radioactivity) (human hepatocytes (lots Hu759, Hu775), 10 μM [^14C]-Compound 1, 4 h): 1.8% and 0.8% | metabolites observed in medium (% of total radioactivity) (human hepatocytes (lots Hu759, Hu775), 10 μM [^14C]-Compound 1, 8 h): 2.6% and 0.6% | metabolites observed in medium (% of total radioactivity) (human hepatocytes (lots Hu759, Hu775), 10 μM [^14C]-Compound 1, 24 h): 2.7% and 0.7%
SMILES: C[C@@]1(O)[C@H](O)[C@@H](COP(=O)(O)NCc2ccccc2)O[C@H]1n1cnc2c(=O)[nH]c(N)nc21 [Compound 2, [(2R)-2-methyl-β-D-ribofuranosyl]guanine-N-benzylaminyl-5′-monophosphate]

metabolites observed in cellular extracts (% of total radioactivity) (human hepatocytes (Hu759, Hu775), 10 μM [^14C]-2′-C-methyl guanosine, 1 h): 0.51% and 0.63% | metabolites observed in cellular extracts (% of total radioactivity) (human hepatocytes (Hu759, Hu775), 10 μM [^14C]-2′-C-methyl guanosine, 4 h): 1.64% and 2.36% | metabolites observed in cellular extracts (% of total radioactivity) (human hepatocytes (Hu759, Hu775), 10 μM [^14C]-2′-C-methyl guanosine, 8 h): 4.54% and 3.46% | metabolites observed in cellular extracts (% of total radioactivity) (human hepatocytes (Hu759, Hu775), 10 μM [^14C]-2′-C-methyl guanosine, 24 h): 7.71% and 10.6% | metabolites observed in cellular extracts (% of total radioactivity) [1]: 4.93% and 6.09% | metabolites observed in cellular extracts (% of total radioactivity) (human hepatocytes (Hu759, Hu775), 10 μM [^14C]-Compound 1, 4 h): 8.01% and 12.4% | metabolites observed in cellular extracts (% of total radioactivity) [2]: 13.99% and 11.1% | metabolites observed in cellular extracts (% of total radioactivity) [3]: 13.4% and 17.05% | 2′-C-methyl guanosine nucleotide levels in cellular extracts [5]: 1.40 pmol/million cells | metabolites observed in cellular extracts (% of total radioactivity) [5]: 7.94% | 2′-C-methyl guanosine nucleotide levels in cellular extracts [6]: 7.70 pmol/million cells | metabolites observed in cellular extracts (% of total radioactivity) [6]: 13.0% | 2′-C-methyl guanosine nucleotide levels in cellular extracts [7]: 11.2 pmol/million cells | metabolites observed in cellular extracts (% of total radioactivity) [7]: 12.4% | 2′-C-methyl guanosine nucleotide levels in cellular extracts (human hepatocytes Hu759, 10 μM [^14C]-2′-C-methyl guanosine, 0 h): 0 pmol/million cells | 2′-C-methyl guanosine nucleotide levels in cellular extracts (human hepatocytes Hu759, 10 μM [^14C]-2′-C-methyl guanosine, 1 h): 2.10 pmol/million cells | 2′-C-methyl guanosine nucleotide levels in cellular extracts (human hepatocytes Hu759, 10 μM [^14C]-2′-C-methyl guanosine, 4 h): 7.50 pmol/million cells | 2′-C-methyl guanosine nucleotide levels in cellular extracts (human hepatocytes Hu759, 10 μM [^14C]-2′-C-methyl guanosine, 8 h): 22.1 pmol/million cells | 2′-C-methyl guanosine nucleotide levels in cellular extracts (human hepatocytes Hu759, 10 μM [^14C]-2′-C-methyl guanosine, 24 h): 46.0 pmol/million cells | 2′-C-methyl guanosine nucleotide levels in cellular extracts (human hepatocytes Hu759, 10 μM [^14C]-Compound 1, 0 h): 0 pmol/million cells | 2′-C-methyl guanosine nucleotide levels in cellular extracts (human hepatocytes Hu759, 10 μM [^14C]-Compound 1, 1 h): 3.00 pmol/million cells | 2′-C-methyl guanosine nucleotide levels in cellular extracts (human hepatocytes Hu759, 10 μM [^14C]-Compound 1, 4 h): 21.0 pmol/million cells | 2′-C-methyl guanosine nucleotide levels in cellular extracts (human hepatocytes Hu759, 10 μM [^14C]-Compound 1, 8 h): 45.0 pmol/million cells | 2′-C-methyl guanosine nucleotide levels in cellular extracts (human hepatocytes Hu759, 10 μM [^14C]-Compound 1, 24 h): 69.0 pmol/million cells | 2′-C-methyl guanosine nucleotide levels in cellular extracts [9]: 2.70 pmol/million cells | Major metabolites observed in cellular extracts (% of total radioactivity) [9]: 6.83 % of total radioactivity | 2′-C-methyl guanosine nucleotide levels in cellular extracts [10]: 4.00 pmol/million cells | Major metabolites observed in cellular extracts (% of total radioactivity) [10]: 9.04 % of total radioactivity | 2′-C-methyl guanosine nucleotide levels in cellular extracts (human hepatocytes Hu775, 10 μM [^14C]-2′-C-methyl guanosine, 0 h): 0 pmol/million cells | 2′-C-methyl guanosine nucleotide levels in cellular extracts (human hepatocytes Hu775, 10 μM [^14C]-2′-C-methyl guanosine, 1 h): 2.90 pmol/million cells | 2′-C-methyl guanosine nucleotide levels in cellular extracts (human hepatocytes Hu775, 10 μM [^14C]-2′-C-methyl guanosine, 4 h): 10.5 pmol/million cells | 2′-C-methyl guanosine nucleotide levels in cellular extracts (human hepatocytes Hu775, 10 μM [^14C]-2′-C-methyl guanosine, 8 h): 15.0 pmol/million cells | 2′-C-methyl guanosine nucleotide levels in cellular extracts (human hepatocytes Hu775, 10 μM [^14C]-2′-C-methyl guanosine, 24 h): 50.0 pmol/million cells | 2′-C-methyl guanosine nucleotide levels in cellular extracts (human hepatocytes Hu775, 10 μM [^14C]-Compound 1, 0 h): 0 pmol/million cells | 2′-C-methyl guanosine nucleotide levels in cellular extracts (human hepatocytes Hu775, 10 μM [^14C]-Compound 1, 1 h): 7.10 pmol/million cells | 2′-C-methyl guanosine nucleotide levels in cellular extracts (human hepatocytes Hu775, 10 μM [^14C]-Compound 1, 4 h): 38.4 pmol/million cells | 2′-C-methyl guanosine nucleotide levels in cellular extracts (human hepatocytes Hu775, 10 μM [^14C]-Compound 1, 8 h): 55 pmol/million cells | 2′-C-methyl guanosine nucleotide levels in cellular extracts (human hepatocytes Hu775, 10 μM [^14C]-Compound 1, 24 h): 161 pmol/million cells
SMILES: C[C@@]1(O)[C@H](O)[C@@H](COP(=O)(O)OP(=O)(O)O)O[C@H]1n1cnc2c(=O)[nH]c(N)nc21 [Compound 6, [(2R)-2-methyl-β-D-ribofuranosyl]guanine 5′-diphosphate]
2′-C-methyl guanosine nucleotide levels in cellular extracts [4]: BLD (BLD = below limit of detection (0.02 pmol/million cells)) | 2′-C-methyl guanosine nucleotide levels in cellular extracts (human hepatocytes Hu775, 1 μM [^14C]-2′-C-methyl guanosine, 0 h): BLD (BLD = below limit of detection (0.02 pmol/million cells)) | 2′-C-methyl guanosine nucleotide levels in cellular extracts [8]: BLD (BLD = below limit of detection (0.02 pmol/million cells)) | Major metabolites observed in cellular extracts (% of total radioactivity) [8]: BLD (BLD = below limit of detection (30 DPM))
